Experimental findings from publication PMC9127750, “Structure-based design of CDC42 effector interaction inhibitors for the treatment of cancer” (Cell reports, 2022) are described below.

Experiment [1] concerns the target T1, CDC42 and PAK1-PBD interaction (Homo sapiens, UniProt P60953).
T1 construct: endogenous in cells; host or cells: WM3248 (or WM983B) melanoma cells; PAK1 PBD beads from Cell Biolabs kit
Description: CDC42 interaction assay (PAK1-PBD pull-down). Particulars: WM3248 cells; ARN22089 at 10 and 50 μM, lysates incubated with GTP; ARN12405 indicated doses (Fig S2B). It counts as cell-based. Here is the method: (§1) 24 hours later the lysates from treated and untreated cells were unloaded of guanosine nucleotides and either loaded with GDP or GTPγS. […] Precipitated lysates were then immunoblotted with indicated antibodies.

The target of experiment [2] is T2, RHOJ and PAK1-PBD interaction (Homo sapiens, UniProt Q9H4E5).
T2 construct: endogenous in cells; host or cells: WM3248 (or WM983B) melanoma cells; PAK1 PBD beads from Cell Biolabs kit
T2 sequence (Q9H4E5 1-211 limits assumed): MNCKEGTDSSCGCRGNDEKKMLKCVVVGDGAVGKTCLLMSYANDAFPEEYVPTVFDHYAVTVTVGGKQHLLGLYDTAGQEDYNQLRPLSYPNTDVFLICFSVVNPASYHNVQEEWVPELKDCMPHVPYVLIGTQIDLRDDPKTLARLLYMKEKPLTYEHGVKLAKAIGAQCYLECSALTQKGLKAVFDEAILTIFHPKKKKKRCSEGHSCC
Description: CDC42 interaction assay (PAK1-PBD pull-down). Type of experiment: cell-based. Particulars: WM3248 cells; ARN22089 at 10 and 50 μM, lysates incubated with GTP; ARN12405 indicated doses (Fig S2B). Here is the method: as §1

Experiment [3] relates to WM3248, SKMel3, A375, SW480, and SKM28. Description: cells. Particulars: Homo sapiens, read-out: IC50 across cancer cell lines. Here is the method: (§2) Cancer cell line viability assay was performed using a CellTiterGlo assay. Cells were cultured in their appropriate media and seeded in white multi-well plates. For the assays, cells were incubated with compound at 37°C overnight, and a CellTiterGlo assay was performed to quantify viable cells.

A further experiment relates to WM3248. Description: cells. Particulars: Homo sapiens, WM3248, read-out: IC50 WM3248. Here is the method: as §2
Another experiment deals with SKMel28 melanoma cells. Description: Cancer cell line viability assay (CellTiterGlo). It counts as cell-based, Human. Particulars: for decrease of activity compared with the hit: SKM28 cells, versus ARN12405; for dose response in SKM28 cell lines: Figure S2F.
A further experiment deals with A375 VMT. Description: Vascularized microtumor (VMT) assay. Type of experiment: cell-based, Human. Particulars: 2 μM.
Experiment [4] relates to VMOs (vessels, no tumor cells). Description: Vascularized micro-organ (VMO) assay. Particulars: no tumor cells (Figure 4D). Type of experiment: cell-based, Human.
Description: (§3) Briefly, human endothelial colony-forming cell-derived endothelial cells (ECFC-EC) are isolated from cord blood via selection for the CD31 + cell population and cultured in EGM2 medium (Lonza). […] Cancer cells and LF are cultured in DMEM (Corning) containing 10% FBS (Gemini Bio). […] To load the microfluidic device, ECFC-EC and LF (both 8 × 10^6 cells/mL) and cancer cells (2.5 × 10^6 cells/mL) were resuspended in fibrinogen solution (10 mg/mL basal medium). The cell slurry was then mixed with 1 mL thrombin (3 U/mL) to catalyze gel solidification and quickly loaded into the tissue chambers of each VMT unit. […] All cells and VMTs are cultured in a 37°C, 20% O2, 5% O2 environment.
(§4) Fluorescence images were acquired with an Olympus IX70 inverted microscope using SPOT software (SPOT Imaging, Sterling Heights, Michigan). […] Each chamber was normalized to time 0 baseline.

As a reminder, the IC50 is the concentration that inhibits the measured activity by half.

Entries after “also recorded” stand apart in the source; their conditions may differ.

T1 sequence (P60953 1-188 limits assumed): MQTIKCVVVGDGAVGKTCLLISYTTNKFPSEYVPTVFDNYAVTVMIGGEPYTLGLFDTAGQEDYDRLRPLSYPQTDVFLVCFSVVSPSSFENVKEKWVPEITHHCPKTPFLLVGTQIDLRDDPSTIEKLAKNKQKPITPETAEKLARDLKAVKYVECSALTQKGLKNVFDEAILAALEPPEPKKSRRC
Description for A375 VMT: as §3, §4

For `Clc1ccc(Nc2cc(-c3ccncc3)nc(C3CCCNC3)n2)cc1` (centres unmarked) [ARN12405], the “inhibition of CDC42 - PAK1-PBD interaction” value in experiment [1] is reported as “inhibits RHOJ/CDC42-PAK interactions; also recorded: blocked the RHOJ/CDC42 PAK interaction”. Moreover, in experiment [2], the “inhibition of RHOJ - PAK1-PBD interaction” value is reported as “inhibits RHOJ/CDC42-PAK interactions; also recorded: blocked the RHOJ/CDC42 PAK interaction”. Turning to `Clc1ccc(Nc2cc(-c3ccccc3)nc(C3CCCNC3)n2)cc1` (centres unmarked) [ARN21698], the IC50 in experiment [3] is 6.3 to 10.9 µM; in the experiment on WM3248, 8.42 µM. `c1ccc(Nc2cc(-c3ccncc3)nc(C3CCCNC3)n2)cc1` (centres unmarked) [ARN21699]: the “decrease of activity compared with the hit” value in the experiment on SKMel28 melanoma cells came to 2 fold.

On to `Clc1cccc(Nc2cc(-c3ccncc3)nc(C3CCCNC3)n2)c1` (centres unmarked) [ARN21700], for which the IC50 in the experiment on WM3248 is 30.9 µM. Also, the “decrease of activity compared with the hit” value with SKMel28 melanoma cells turned out to be 2 fold. As to `COc1ccc(Nc2cc(-c3ccccc3)nc(C3CCOCC3)n2)cc1` [ARN22162, N-(4-methoxyphenyl)-6-phenyl-2-tetrahydropyran-4-yl-pyrimidin-4-amine], the “dose response in SKM28 cell lines” value with SKMel28 melanoma cells was “no dose response”. Regarding `CN(C)c1ccc(Nc2cc(-c3ccccc3)nc(C3CCOCC3)n2)cc1` [ARN22163, N4,N4-dimethyl-N1-(6-phenyl-2-tetrahydropyran-4-yl-pyrimidin-4-yl)benzene-1,4-diamine], the “dose response in SKM28 cell lines” value with SKMel28 melanoma cells is on record as “no dose response”. As for `CCn1c(=O)c(-c2ccc(-c3cncs3)cc2Cl)cc2cnc(Nc3ccc(N4CCN(C)CC4)cc3)nc21` [FRAX597], the “growth of A375 cells and blood vessels in VMT” value in the experiment with A375 VMT was “did not significantly inhibit”.

On to `Cc1ccc(F)c(NC(=O)Nc2ccc(-c3cccc4[nH]nc(N)c34)cc2)c1` [linifanib], for which, in experiment [4], the “vessel growth / angiogenesis in VMOs” value is “did inhibit angiogenesis”.
